# System: HIV gag-pol stem loop
# Assay: Gel shift, oligonucleotide set binding to HIV gag-pol triple strand
# Conditions: pH 5, 100 mM NaCl, 2 mM MgCl2, 1 mM spermidine
# Source text: Binding to double stranded DNA or RNA is possible by formation of a three stranded complex, with the incoming third strand binding in the major groove of the duplex RNA or DNA. FIG. 6 illustrates a double stranded RNA structure from HIV known as the gag-pol stem loop (Vickers and Ecker, Nucleic Acids Research). One of the limitations in the design of triple strand interactions is the need to have a long stretch of homopurines as a target. The 3' (right) side of the gag-pol stem loop is homopurine except for a pair of cytosines near the bottom of the stem. To determine the best oligonucleotide to bind to the gag-pol stem loop, a group of RNA oligonucleotide sets was designed to bind to the purine-rich strand of the gag-pol stem-loop by Hoogstein base pairing and prepared in accordance with Examples 2 and 6. Binding to the gag-pol stemloop was measured by gel shift analysis as previously described in Example 8 with the following modifications: the radiolabeled gag-pol RNA was incubated with the oligonucleotide in 100 mM NaCl, 25 mM TRIS acetate (pH 5), 2 mM MgCl2, 1 mM spermidine. The gel was 15% acrylamide with 50 mM NaCl and 2 mM MgCl2 added to the running buffer.
row,Substance,Kd
1,"A2: RNA oligonucleotide, SEQ ID NO: 10 (CCCUUCCCAUC; RNA, backbone not given here) [Set A2]",10 µM
2,"B2: RNA oligonucleotide, SEQ ID NO: 11 (CCCUUCCCGUC; RNA, backbone not given here) [Set B2]",10 µM
3,"C2: RNA oligonucleotide, SEQ ID NO: 12 (CCCUUCCCCUC; RNA, backbone not given here) [Set C2]",1 µM
4,"D2: RNA oligonucleotide, SEQ ID NO: 13 (CCCUUCCCUUC; RNA, backbone not given here) [Set D2]",10 µM
